From patent EP4741386A1 (Jiangsu Yahong Meditech Co., Ltd., priority 2023, dated 2025) come the findings set out here.

One test concerns MDA-MB-436. The test is described as follows: CTG experiment for cell viability (CellTiter-Glo, 96-well plate, 7 days). It is filed as cell-based. The conditions noted are these: Homo sapiens, MDA-MB-436, 168 h, MDA-MB-436 cells, 7 days culture with compound. An outline of the steps:
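MDA-MB-436 cells in DMEM were plated in 96-well format, treated with compounds, and cultured 7 days at 37°C. After removing the medium, cells were given PBS plus CellTiter-Glo reagent, incubated 10 min at room temperature, and luminescence was read. Curves were fitted as for the enzyme assay.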
In general terms: Cellular ATP, detected with luciferase, serves as a proxy for viable cell number.

Test [1] addresses T1, Recombinant human His6-USP1/His6-UAF1 complex protein (Homo sapiens, UniProt O94782).
T1 construct: His6; purchased R&D E-568-050
The test is described as follows: In vitro inhibitory activity against USP1 (Ubiquitin Rhodamine 110 fluorescence detection, 384-well plate). It is filed as biochemical. Particulars: Ub-Rho substrate, 1 hour pre-incubation, read after 30 minutes. An outline of the steps: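 Fluorescence assay measuring inhibition of recombinant human His6-USP1/His6-UAF1 complex with Ubiquitin-Rhodamine 110 substrate. Compounds held as 50 mM stocks in 100% DMSO and dispensed by acoustic transfer into modified Tris assay buffer.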

SMILES strings stand for the structures. pIC50: −log10 of the molar value.

T1 sequence (O94782 whole entry): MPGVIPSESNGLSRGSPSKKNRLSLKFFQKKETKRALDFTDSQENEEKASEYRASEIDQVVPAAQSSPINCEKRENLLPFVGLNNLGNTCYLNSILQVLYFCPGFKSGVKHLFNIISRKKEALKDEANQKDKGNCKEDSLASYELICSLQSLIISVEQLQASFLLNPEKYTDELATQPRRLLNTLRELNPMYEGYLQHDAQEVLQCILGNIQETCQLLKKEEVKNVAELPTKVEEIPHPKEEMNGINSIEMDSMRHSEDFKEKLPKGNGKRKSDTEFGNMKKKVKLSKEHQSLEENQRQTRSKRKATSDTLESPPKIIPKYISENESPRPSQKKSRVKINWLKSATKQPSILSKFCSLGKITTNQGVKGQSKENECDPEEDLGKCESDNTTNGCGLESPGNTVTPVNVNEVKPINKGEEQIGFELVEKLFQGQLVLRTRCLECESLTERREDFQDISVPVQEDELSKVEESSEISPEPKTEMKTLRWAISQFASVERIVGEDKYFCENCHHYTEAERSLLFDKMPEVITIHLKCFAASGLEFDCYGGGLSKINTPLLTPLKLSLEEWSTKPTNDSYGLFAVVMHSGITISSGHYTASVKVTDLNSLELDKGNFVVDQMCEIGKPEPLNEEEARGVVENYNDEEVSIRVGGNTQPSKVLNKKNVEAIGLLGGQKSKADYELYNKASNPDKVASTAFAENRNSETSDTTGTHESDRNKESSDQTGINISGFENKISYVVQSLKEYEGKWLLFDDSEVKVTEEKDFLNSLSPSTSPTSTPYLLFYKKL
T1 sequence (Q8TAF3 whole entry partner): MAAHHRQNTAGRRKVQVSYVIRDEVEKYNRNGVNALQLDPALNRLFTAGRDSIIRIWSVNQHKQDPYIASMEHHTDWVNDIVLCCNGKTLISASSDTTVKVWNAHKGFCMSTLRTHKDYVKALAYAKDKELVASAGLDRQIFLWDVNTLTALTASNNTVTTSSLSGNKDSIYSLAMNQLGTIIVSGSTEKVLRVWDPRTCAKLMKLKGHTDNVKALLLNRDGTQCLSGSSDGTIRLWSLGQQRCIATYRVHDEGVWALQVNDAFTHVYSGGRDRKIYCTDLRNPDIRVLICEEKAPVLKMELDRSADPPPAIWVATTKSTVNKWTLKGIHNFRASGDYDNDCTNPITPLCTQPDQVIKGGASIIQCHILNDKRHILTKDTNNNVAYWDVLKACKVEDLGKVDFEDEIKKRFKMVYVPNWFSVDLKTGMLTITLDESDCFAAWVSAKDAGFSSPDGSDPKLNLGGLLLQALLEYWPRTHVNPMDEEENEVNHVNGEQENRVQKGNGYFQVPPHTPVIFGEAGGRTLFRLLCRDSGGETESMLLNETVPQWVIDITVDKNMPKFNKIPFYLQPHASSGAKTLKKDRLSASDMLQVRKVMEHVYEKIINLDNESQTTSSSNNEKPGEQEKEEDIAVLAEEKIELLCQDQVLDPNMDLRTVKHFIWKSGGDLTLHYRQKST

Broadly, the pIC50 is the negative decadic logarithm of the IC50, by convention in mol/L. Regarding `COc1cnc(-c2c(C)cnn2C2CC2)nc1NCc1ccc(-c2nc(C(F)(F)F)cn2C)cc1` [Example 199, 2-(1-Cyclopropyl-4-methyl-1H-pyrazol-5-yl)-5-methoxy-N-(4-(1-methyl-4-(trifluoromethyl)-1H-imidazol-2-yl)benzyl)pyrimidin-4-amine], the pIC50 in the test on MDA-MB-436 is 7.54; in test [1], 8.25.
For `COc1cnc(-c2c(C)cnn2C(C)C)nc1N(C)Cc1ccc(-c2nc(C(F)(F)F)cn2C)cc1` [Example 200, 2-(1-Isopropyl-4-methyl-1H-pyrazol-5-yl)-5-methoxy-N-methyl-N-(4-(1-methyl-4-(trifluoromethyl)-1H-imidazol-2-yl)benzyl)pyrimidin-4-amine], in that order: 8.55 and 8.55.
The corresponding values for `COc1cnc(-c2c(C)cnn2C(C)C)nc1N(C)Cc1ccc(-n2nc(C(F)(F)F)cc2C)cc1` [Example 201, 2-(1-Isopropyl-4-methyl-1H-pyrazol-5-yl)-5-methoxy-N-methyl-N-(4-(5-methyl-3-(trifluoromethyl)-1H-pyrazol-1-yl)benzyl)pyrimidin-4-amine] are 7.39 and 7.92.
For the molecule `COc1cnc(-c2c(C)cnn2C(C)C)nc1NCc1ccc(-c2nc(C(F)(F)F)cn2C)cc1` [Example 202, 2-(1-Isopropyl-4-methyl-1H-pyrazol-5-yl)-5-methoxy-N-(4-(1-methyl-4-(trifluoromethyl)-1H-imidazol-2-yl)benzyl)pyrimidin-4-amine], the pIC50 was 7.80 with MDA-MB-436 and 8.52 in test [1].
Regarding `C#Cc1cnc(-c2c(C)cnn2C(C)C)nc1NCc1ccc(-c2nc(C(F)(F)F)cn2C)cc1` [Example 203, 5-Ethynyl-2-(1-isopropyl-4-methyl-1H-pyrazol-5-yl)-N-(4-(1-methyl-4-(trifluoromethyl)-1H-imidazol-2-vl)benzyl)pyrimidin-4-amine], the pIC50 is 8.48 in the test with MDA-MB-436 and 8.85 in test [1].
On to `COc1cnc(-c2c(OC)ncnc2C2CC2)nc1N(O)Cc1ccc(-c2nc(C(F)(F)F)cn2C)cc1` [Example 204, N-(4'-cyclopropyl-5,6'-dimethoxy-[2,5'-bipyrimidin]-4-yl)-N-(4-(1-methyl-4-(trifluoromethyl)-1H-imidazol-2-yl)benzyl)hydroxylamine], for which the pIC50 with MDA-MB-436 was 7.80; in test [1], 7.60.
`COc1cnc(-c2c(OC)ncnc2C2CC2)nc1N(C)CC12C3C4C1C1C2C3C41c1nc(C(F)(F)F)cn1C` (stereo not drawn) [Example 207, 2-(4-cyclopropyl-6-methoxy-pyrimidin-5-yl)-5-methoxy-N-methyl-N-[[4-[1-methyl-4-(trifluoromethyl)imidazol-2-yl]cuban-1-yl]methyl]pyrimidin-4-amine]: the pIC50 is 8.24 with MDA-MB-436 and 8.46 in test [1].
Regarding `COc1cnc(-c2c(Cl)cnn2C(C)C)nc1NCC12CCC(c3nc(C(F)(F)F)cn3C)(CC1)OC2` [Example 209, 2-(4-chloro-1-isopropyl-1H-pyrazol-5-yl)-5-methoxy-N-((1-(1-methyl-4-(trifluoromethyl)-1H-imidazol-2-yl)-2-oxabicyclo[2.2.2]octan-4-yl)methyl)pyrimidin-4-amine], the values for the pIC50 (in the test with MDA-MB-436; in test [1]) were 7.50 and 8.80, respectively.
For the molecule `COc1cnc(-c2c(OC)ncnc2C2CC2)nc1NCC12CCC(c3nc(C(F)(F)F)cn3C)(CC1)OC2` [Example 210], the negative-log IC50 (pIC50) in the test on MDA-MB-436 was 6.77; in test [1] it was 7.07.
In the case of `COc1cnc(-c2c(OC)ncnc2C2CC2)nc1NCC12C3C4C1C1C2C3C41c1nc(C(F)(F)F)cn1C` (stereo not drawn) [Example 215], the pIC50 in the test on MDA-MB-436 was 8.06; in test [1], 8.66.
For `COc1cnc(-c2c(OC)ncnc2C2CC2)nc1NCC12C3C4C1C1C2C3C41c1nc(C(F)(F)F)cn1C1CC1` (stereo not drawn) [Example 216, 4'-cyclopropyl-N-((4-(1-cyclopropyl-4-(trifluoromethyl)-1H-imidazol-2-yl)cuban-1-yl)methyl)-5,6'-dimethoxy-[2,5'-bipyrimidin]-4-amine], in that order: 8.57 and 8.85.
For `[2H]C([2H])([2H])N(c1nc(-c2c(OC)ncnc2C2CC2)ncc1OC)C(C)c1ccc(-c2nc(C(F)(F)F)cn2C)cc1` (stereo not drawn) [Example S3, 4'-Cyclopropyl-5,6'-dimethoxy-N-(methyl-D3)-N-(1-(4-(1-methyl-4-(trifluoromethyl)-1 H-imidazol-2-yl)phenyl)ethyl)-[2,5'-bipyrimidin]-4-amine], the pIC50 in the test on MDA-MB-436 is 9.52; in test [1], 8.57.
The corresponding values for `[2H]C([2H])([2H])N(CC12CCC(c3nc(C(F)(F)F)cn3C)(CC1)CC2)c1nc(-c2c(OC)ncnc2C2CC2)ncc1OC` [Example S4, 4'-Cyclopropyl-5,6'-dimethoxy-N-(methyl-d3)-N-((4-(1-methyl-4-(trifluoromethyl)-1H-imidazol-2-yl)bicyclo[2.2.2]oct-1-yl)methyl)-[2,5'-bipyrimidin]-4-amine] are 8.64 and 8.31.
For `[2H]C([2H])([2H])Oc1ncnc(C2CC2)c1-c1ncc(OC)c(NCC23CCC(c4nc(C(F)(F)F)cn4C)(CC2)CC3)n1` [Example S5, 4'-Cyclopropyl-5-methoxy-6'-(methoxy-D3)-N-((4-(1-methyl-4-(trifluoromethyl)-1H-imidazol-2-yl)bicyclo[2.2.2]oct-1-yl)methyl)-[2,5'-bipyrimidin]-4-amine], in that order: 7.69 and 7.85.
With `COc1cnc(-c2c(OC)ncnc2C2CC2)nc1NCc1ccc(-c2nc(C(F)(F)F)cn2CC(F)(F)F)cc1` [Example S7, 4'-Cyclopropyl-56'-dimethoxy-N-(4-(1-(2,2,2-trifluoroethyl)-4-(trifluoromethyl)-1H-imidazol-2-yl)benzyl)-[2,5'-bipyrimidin]-4-amine], the pIC50 in the test on MDA-MB-436 was 7.77; in test [1] it was 7.92.
For `COc1cnc(-c2c(Cl)cnn2C(C)C)nc1N(C)CC12CCC(c3nc(C(F)(F)F)cn3C3CCC3)(CC1)OC2` [Example S12, 2-(4-Chloro-1-isopropyl-1H-pyrazol-5-yl)-N-((1-(1-cyclobutyl-4-(trifluoromethyl)-1H-imidazol-2-yl)-2-oxabicyclo[2.2.2]oct-4-yl)methyl)-5-methoxy-N-methylpyrimidin-4-amine], the pIC50 in the test on MDA-MB-436 was 6.77; in test [1], 7.46.
The corresponding values for `COc1cnc(-c2c(Cl)cnn2C(C)C)nc1N(C)CC12CCC(c3nc(C(F)(F)F)cn3C(C)C)(CC1)OC2` [Example S13, 2-(4-Chloro-1-isopropyl-1H-pyrazol-5-yl)-N-((1-(1-isopropyl-4-(trifluoromethyl)-1H-imidazol-2-yl)-2-oxabicyclo[2.2.2]oct-4-yl)methyl)-5-methoxy-N-methylpyrimidin-4-amine] are 7.22 and 7.89.
Regarding `COc1cnc(-c2c(OC)ncnc2C(F)(F)F)nc1NCC12CCC(c3nc(C(F)(F)F)cn3C(C)C)(CC1)OC2` [Example S15, N-((1-(1-Isopropyl-4-(trifluoromethyl)-1H-imidazol-2-yl)-2-oxabicyclo[2.2.2]oct-4-yl)methyl)-4',5-dimethoxy-6'-(trifluoromethyl)-[2,5'-bipyrimidin]-4-amine], the values for the pIC50 (in the test with MDA-MB-436; in test [1]) were 6.62 and 7.04, respectively.
The corresponding values for `COc1cnc(-c2c(OC)ncnc2C2CC2)nc1NCC12CCC(c3nc(C(F)(F)F)cn3C3CCC3)(CC1)OC2` [Example S16, N-((1-(1-Cyclobutyl-4-(trifluoromethyl)-1H-imidazol-2-yl)-2-oxabicyclo[2.2.2]oct-4-yl)methyl)-4'-cyclopropyl-5,6'-dimethoxy-[2,5'-bipyrimidin]-4-amine] are 7.39 and 7.47.
For `COc1cnc(-c2c(Cl)cnn2C(C)C)nc1N(C)CC12CCC(c3nc(C(F)(F)F)cn3C)(CC1)OC2` [Example S17, 2-(4-Chloro-1-isopropyl-1H-pyrazol-5-yl)-5-methoxy-N-methyl-N-((1-(1-methyl-4-(trifluoromethyl)-1H-imidazol-2-yl)-2-oxabicyclo[2.2.2]oct-4-yl)methyl)pyrimidin-4-amine], in that order: 7.44 and 8.21.
The corresponding values for `COc1cnc(-c2c(OC)ncnc2C2CC2F)nc1NCC12CCC(c3nc(C(F)(F)F)cn3C)(CC1)CC2` (stereo not drawn) [Example S18, 4'-(2-Fluorocyclopropyl)-5,6'-dimethoxy-N-((4-(1-methyl-4-(trifluoromethyl)-1 H-imidazol-2-yl)bicyclo[2.2.2]oct-1-yl)methyl)-[2,5'-bipyrimidin]-4-amine] are 7.97 and 7.92.
As to `COc1cnc(-c2c(OC)ncnc2C2CC2)nc1NC[C@H]1CC[C@H](c2nc(C(F)(F)F)cn2C)CC1` [Example S20], the pIC50 was 7.67 in the test on MDA-MB-436 and 7.72 in test [1].
The corresponding values for `COc1cnc(-c2c(OC)ncnc2C2CC2)nc1N(C)C[C@H]1CC[C@H](c2nc(C(F)(F)F)cn2C)CC1` [Example S21] are 8.33 and 8.22.
For `[2H]C([2H])([2H])N(C[C@H]1CC[C@H](c2nc(C(F)(F)F)cn2C)CC1)c1nc(-c2c(OC)ncnc2C2CC2)ncc1OC` [Example S22, 4'-Cyclopropyl-5,6'-dimethoxy-N-(methyl-d3)-N-(((1r,4r)-4-(1-methyl-4-(trifluoromethyl)-1H-imidazol-2-yl)cyclohexyl)methyl)-[2,5'-bipyrimidin]-4-amine], in that order: 8.35 and 8.34.
